Publication PMC8400042, “Selective DNA Gyrase Inhibitors: Multi-Target in Silico Profiling with 3D-Pharmacophores” (Pharmaceuticals, 2021)
Like-named read-outs stand apart in the source and are kept apart here.

Key:
[1] = target: T1, human DNA topoisomerase IIα (Homo sapiens, UniProt P11388); assay: human DNA topoisomerase IIα DNA relaxation assay (Inspiralis); type: biochemical; details: for IC50: DNA relaxation assay, read-out: Human TopoII IC50; for inhibition of TopoII (in words): concentrations up to 100 μM
T1 construct: purchased Inspiralis
T1 sequence (P11388 whole entry): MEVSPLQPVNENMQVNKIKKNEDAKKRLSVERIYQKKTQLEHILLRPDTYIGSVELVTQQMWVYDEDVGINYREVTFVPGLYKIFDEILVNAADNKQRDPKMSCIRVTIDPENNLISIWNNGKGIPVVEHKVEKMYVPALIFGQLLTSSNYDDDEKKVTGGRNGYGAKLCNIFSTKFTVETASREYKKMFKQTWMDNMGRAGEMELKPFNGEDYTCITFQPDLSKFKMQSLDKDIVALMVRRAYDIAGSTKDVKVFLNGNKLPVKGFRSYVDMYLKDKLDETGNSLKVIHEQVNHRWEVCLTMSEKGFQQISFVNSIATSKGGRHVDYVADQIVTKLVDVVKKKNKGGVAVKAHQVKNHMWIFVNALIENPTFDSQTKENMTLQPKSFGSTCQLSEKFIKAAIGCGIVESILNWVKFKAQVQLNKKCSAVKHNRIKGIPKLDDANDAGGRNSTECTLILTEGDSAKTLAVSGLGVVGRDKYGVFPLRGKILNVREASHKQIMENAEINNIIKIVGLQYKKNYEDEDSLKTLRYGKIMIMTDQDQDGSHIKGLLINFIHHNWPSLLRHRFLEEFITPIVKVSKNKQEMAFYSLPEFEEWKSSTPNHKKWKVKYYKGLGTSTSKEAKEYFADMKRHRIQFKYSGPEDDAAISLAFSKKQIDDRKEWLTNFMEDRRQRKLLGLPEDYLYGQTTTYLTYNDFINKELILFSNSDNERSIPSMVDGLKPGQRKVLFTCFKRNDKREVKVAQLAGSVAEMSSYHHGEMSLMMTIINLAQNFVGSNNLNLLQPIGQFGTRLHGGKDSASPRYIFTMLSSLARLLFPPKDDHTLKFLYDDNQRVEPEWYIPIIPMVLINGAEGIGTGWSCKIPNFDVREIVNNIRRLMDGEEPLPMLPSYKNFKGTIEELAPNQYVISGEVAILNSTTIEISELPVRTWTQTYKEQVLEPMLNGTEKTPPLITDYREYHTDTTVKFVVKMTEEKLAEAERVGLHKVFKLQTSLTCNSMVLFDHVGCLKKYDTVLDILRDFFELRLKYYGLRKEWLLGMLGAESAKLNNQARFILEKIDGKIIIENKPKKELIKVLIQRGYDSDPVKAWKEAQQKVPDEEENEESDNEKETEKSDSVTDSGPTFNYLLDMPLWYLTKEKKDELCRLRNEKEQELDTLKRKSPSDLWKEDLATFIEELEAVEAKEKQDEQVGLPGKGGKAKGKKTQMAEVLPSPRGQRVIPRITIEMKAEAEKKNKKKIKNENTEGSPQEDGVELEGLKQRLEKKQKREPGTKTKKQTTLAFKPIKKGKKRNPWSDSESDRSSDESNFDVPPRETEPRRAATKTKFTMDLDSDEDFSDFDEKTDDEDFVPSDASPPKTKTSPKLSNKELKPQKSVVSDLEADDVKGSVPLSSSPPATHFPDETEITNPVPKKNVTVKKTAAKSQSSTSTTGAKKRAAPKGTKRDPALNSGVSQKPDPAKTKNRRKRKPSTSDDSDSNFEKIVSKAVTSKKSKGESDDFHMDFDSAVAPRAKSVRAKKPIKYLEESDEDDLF
Description: Inhibitory activities were determined in an assay from Inspiralis on streptavidin-coated 96-well microtitre plates from Thermo Scientific Pierce. […] After washing off the unbound oligonucleotide, the enzyme assay was performed. […] Reaction solutions were incubated at 37 °C for 30 min. After that, the TF buffer (50 mM NaOAc, 50 mM NaCl, and 50 mM MgCl2, pH 5.0) was added to terminate the enzymatic reaction. After additional incubation for 30 min at RT, during which biotin–oligonucleotide–plasmid triplex was formed, the unbound plasmid was washed off using TF buffer, and Diamond Dye in T10 buffer (10 mM Tris·HCl, 1 mM EDTA, pH 8.0) was added. […] Initial screening was done at 100 or 10 μM concentrations of inhibitors. […] GraphPad Prism 6 software was used to calculate the IC50 values. The results are reported as the average value of three independent measurements.

human Hsp90α NTD [2] = target: T2, human Hsp90α NTD (Homo sapiens, UniProt P07900); assay: fluorescence-based thermal shift assay (FTSA), binding to Hsp90; details: concentrations up to 100 μM
T2 construct: Production and purification of recombinant Hsp90α NTD have been described previously; made in house

human Hsp90α NTD [3] = target: T2, human Hsp90α NTD; assay: as above; details: for Kd: FTSA
Description: Production and purification of recombinant Hsp90α NTD have been described previously. The molecular weight of the protein has been confirmed by high-resolution mass spectrometry, purity by SDS-PAGE, and the concentration was determined by UV-VIS spectrophotometry at 280 nm. The synthesis, chemical structure determination, and purity of compounds 1-7 have been previously described.
Compound binding to Hsp90 was determined by the fluorescence-based thermal shift assay (FTSA) which determines the thermal stability of the free and ligand-bound protein [61, 62, 63]. The stabilization efficiency is directly related to the ligand-binding affinity. The experiments were carried out with Corbett Rotor-Gene 6000 (QIAGEN Rotor-Gene Q) spectrofluorimeter (using excitation 365 ± 20 nm and detection at 460 ± 15 nm). Protein solutions in the presence of various concentrations of a compound were heated from 25 to 95 °C at a rate of 1 °C/min. Protein unfolding was monitored by measuring the fluorescence of 8-anilino-1-naphthalenesulfonate (ANS) dye at added 50 μM concentration. Increasing concentration of a compound shifted the protein denaturation temperature increasingly upwards depending on the binding affinity. Samples contained 5 μM protein, ligand concentration ranging from 0 to 200 μM, […] (pH 7.5) containing […] and 2% DMSO. Protein melting temperatures were determined by fitting the fluorescence curves while the compound dosing curves were simulated as described previously. All experiments were repeated at least twice.

E. coli DNA gyrase [4] = target: T3, E. coli DNA gyrase (Escherichia coli, UniProt P0AES6); details: cited from earlier work
T3 construct: purchased Inspiralis

E. coli DNA gyrase [5] = target: T3, E. coli DNA gyrase; assay: DNA supercoiling assay (Inspiralis); type: biochemical
Description: The DNA supercoiling assay from Inspiralis for the determination of IC50 values was performed according to previously reported procedures.

human Hsp90α NTD [6] = target: T2, human Hsp90α NTD; details: cited from earlier work
[7] = system: Hsp90 C-terminal domain (CTD); parameters: method as in PMID 10945979, PMID 10655441; details: cited from earlier work
human TopoII = system: human TopoII; parameters: method as in PMID 2537141; details: cited from earlier work
[8] = DNA supercoiling assay, read-out: E. coli DNA gyrase IC50

SMILES	activity at TopoII in vitro (in words) [1]	IC50 [1] [µM]	activity at Hsp90 in vitro (in words) (human Hsp90α NTD [3])	Kd (human Hsp90α NTD [3]) [µM]	activity at GyrB / DNA gyrase in vitro (in words) (E. coli DNA gyrase [5])	IC50 (E. coli DNA gyrase [5]; [8]) [µM]	also measured
O=C(O)C(=O)Nc1ccc2nc(NC(=O)c3cc(Cl)c(Cl)[nH]3)sc2c1 [Compound 1]	inactive	> 100	inactive	> 100			inhibition of TopoII (in words) [1]: devoid of activity; binding to Hsp90α NTD (in words) (human Hsp90α NTD [2]): devoid of activity
Cc1[nH]c(C(=O)N[C@H]2CCc3nc(NC(=O)CC(=O)O)sc3C2)c(Br)c1Br [Compound 2]	inactive	> 100	inactive	> 100			inhibition of TopoII (in words) [1]: devoid of activity; IC50 (E. coli DNA gyrase [4]; DNA supercoiling assay, read-out: Escherichia coli DNA gyrase IC50): < 0.1 µM; IC50 (E. coli DNA gyrase [4]; read-out: E. coli DNA gyrase IC50): 0.02 µM; binding to Hsp90α NTD (in words) (human Hsp90α NTD [2]): devoid of activity
COc1ccc(-c2snnc2-c2cc(Cl)c(O)cc2O)cc1 [Compound 3]	no inhibition	> 100			no inhibition		IC50 (E. coli DNA gyrase [5]): > 100 µM
CC(C)Cc1cc(-c2nnsc2-c2ccccc2)c(O)cc1O [Compound 4]	no inhibition	> 100			no inhibition	> 100	Kd (human Hsp90α NTD [6]): 0.0066 µM
O=c1nc(SCc2cc(F)cc(C(F)(F)F)c2)nc(SCc2ccccc2F)[nH]1 [Compound 5]			inactive	> 100	inactive	> 100	
O=c1nc(SCc2cc(F)cc(C(F)(F)F)c2)nc(SCc2ccc(Cl)cc2)[nH]1 [Compound 6]			inactive	> 100	inactive	> 100	
NS(=O)(=O)c1c(F)c(F)c(SCCO)c(F)c1NC1CCCCCCC1 [Compound 7]	inactive	> 100	inactive	> 100	inactive	> 100	
CO[C@@H]1[C@@H](OC(N)=O)[C@@H](O)[C@H](Oc2ccc3c(O)c(NC(=O)c4ccc(O)c(CC=C(C)C)c4)c(=O)oc3c2C)OC1(C)C [novobiocin]							binding to allosteric binding site at Hsp90 CTD (in words) [7]: weakly bind; inhibition of human TopoII (in words) (human TopoII): inhibit
